Test results reported in patent publication US4521422A, “Aryl and heteroaryl[7-(aryl and heteroaryl)pyrazolo[1,5-a]pyrimidin-3-yl]methanones” (American Cyanamid Company, priority 1984, dated 1985).

These compounds were tested on Clonic Seizures Caused by Pentylenetetrazole in Rats (assay: Protection against clonic seizures caused by pentylenetetrazole in rats). Details: Rattus norvegicus; dose 25.0 mg/kg, oral or i.p.; pentylenetetrazole 23 mg/kg i.v. at 30 or 60 min; read-out: % of Rats Protected.
Format: in vivo
Description: The anti-anxiety and anticonvulsant properties of the novel compounds of the present invention have been established in a test which indicates anxiolytic and antiepileptic activity by the measure of protection from convulsions resulting from the administration of pentylenetetrazole. Single or graded dose levels of the test compounds were administered orally or intraperitoneally in a 2% starch vehicle, containing 0.5% v/v polyethylene glycol and one drop of Polysorbate 80 to groups of at least 4 rats. At 30 or 60 minutes, the rats were treated intravenously with pentylenetetrazole at a dose of 23 mg/kg of body weight. This dose is estimated to cause clonic seizures in 99% of unprotected rats. It has been reported [R. T. Hill and D. H. Tedeschi, "Animal Testing and Screening Procedures in Evaluating Psychotropic Drugs" in "An Introduction to Psychopharmacology", Eds. R. R. Rech and K. E. Moore, Raven Press, New York, pp 237-288 (1971)] that there is a high degree of correlation between antagonism of pentylenetetrazole seizures in rats and anti-anxietyor anticonvulsant effects in higher warm-blooded animals.

SMILES | responders at 25 mg/kg
CSc1ccc(-c2ccnc3c(C(=O)c4ccccc4)cnn23)cc1 [[7-[4-(methylthio)phenyl]pyrazolo[1,5-a]pyrimidin-3-yl]phenylmethanone] | 50%
Cc1cccc(C(=O)c2cnn3c(-c4ccncc4)ccnc23)c1 [(3-methylphenyl)[7-(4-pyridinyl)pyrazolo[1,5-a]pyrimidin-3-yl]methanone] | 100%
Cc1cc(-c2cccc(C(F)(F)F)c2)n2ncc(C(=O)c3ccc(F)cc3)c2n1 [(4-fluorophenyl)[5-methyl-7-[3-(trifluoromethyl)phenyl]pyrazolo[1,5-a]pyrimidin-3-yl]methanone] | 25%
O=C(c1ccc(F)cc1)c1cnn2c(-c3ccc(C(F)(F)F)cc3)ccnc12 [(4-fluorophenyl)[7-[4-(trifluoromethyl)phenyl]pyrazolo[1,5-a]pyrimidin-3-yl]methanone] | 50%
CCOc1ccc(C(=O)c2cnn3c(-c4cccnc4)ccnc23)cc1 [(4-ethoxyphenyl)[7-(3-pyridinyl)pyrazolo[1,5-a]pyrimidin-3-yl]methanone] | 25%
COc1ccc(C(=O)c2cnn3c(-c4ccncc4)ccnc23)cc1 [(4-methoxyphenyl)[7-(4-pyridinyl)pyrazolo[1,5-a]pyrimidin-3-yl]methanone] | 25%
Cc1ccccc1C(=O)c1cnn2c(-c3cccnc3)ccnc12 [(2-methylphenyl)[7-(3-pyridinyl)pyrazolo[1,5-a]pyrimidin-3-yl]methanone] | 25%
O=C(c1ccsc1)c1cnn2c(-c3cccc(C(F)(F)F)c3)ccnc12 [3-thienyl[7-[3-(trifluoromethyl)phenyl]pyrazolo[1,5-a]pyrimidin-3-yl]methanone] | 75%
N#Cc1ccc(-c2ccnc3c(C(=O)c4ccc(F)cc4)cnn23)cc1 [4-[3-(4-fluorobenzoyl)pyrazolo[1,5-a]pyrimidin-7-yl]benzonitrile] | 50%
Cc1cnc2c(C(=O)c3ccc(F)cc3)cnn2c1-c1cccnc1 [(4-fluorophenyl)[6-methyl-7-(3-pyridinyl)pyrazolo[1,5-a]pyrimidin-3-yl]methanone] | 75%
COc1ccc(C(=O)c2cnn3c(-c4cc(OC)c(OC)c(OC)c4)ccnc23)cc1OC [(3,4-dimethoxyphenyl)[7-(3,4,5-trimethoxyphenyl)pyrazolo[1,5-a]pyrimidin-3-yl]methanone] | 75%
O=C(c1cccc(Cl)c1)c1cnn2c(-c3cccnc3)ccnc12 [(3-chlorophenyl)[7-(3-pyridinyl)pyrazolo[1,5-a]pyrimidin-3-yl]methanone] | 50%
O=C(c1cccs1)c1cnn2c(-c3ccc(C(F)(F)F)cc3)ccnc12 [2-thienyl[7-[4-(trifluoromethyl)phenyl]pyrazolo[1,5-a]pyrimidin-3-yl]methanone] | 25%
COc1ccc(C(=O)c2cnn3c(-c4ccncc4)ccnc23)cc1OC [(3,4-dimethoxyphenyl)[7-(4-pyridinyl)pyrazolo[1,5-a]pyrimidin-3-yl]methanone] | 50%
O=C(c1cc(Cl)ccc1Cl)c1cnn2c(-c3ccc(F)cc3)ccnc12 [(2,5-dichlorophenyl)[7-(4-fluorophenyl)pyrazolo[1,5-a]pyrimidin-3-yl]methanone] | 25%
O=C(c1ccc2c(c1)OCO2)c1cnn2c(-c3ccncc3)ccnc12 [1,3-benzodioxol-5-yl[7-(4-pyridinyl)pyrazolo[1,5-a]pyrimidin-3-yl]methanone] | 25%
O=C(c1cc(Cl)ccc1Cl)c1cnn2c(-c3ccncc3)ccnc12 [(2,5-dichlorophenyl)[7-(4-pyridinyl)pyrazolo[1,5-a]pyrimidin-3-yl]methanone] | 25%

SMILES | responders at 25 mg/kg
Cc1ccc(C(=O)c2cnn3c(-c4cccnc4)ccnc23)s1 [(5-methyl-2-thienyl)[7-(3-pyridinyl)pyrazolo[1,5-a]pyrimidin-3-yl]methanone] | 25%
COc1ccccc1C(=O)c1cnn2c(-c3cccnc3)ccnc12 [(2-methoxyphenyl)[7-(3-pyridinyl)pyrazolo[1,5-a]pyrimidin-3-yl]methanone] | 75%
O=C(c1cc(Cl)ccc1Cl)c1cnn2c(-c3cccnc3)ccnc12 [(2,5-dichlorophenyl)[7-(3-pyridinyl)pyrazolo[1,5-a]pyrimidin-3-yl]methanone] | 25%
COc1cccc(C(=O)c2cnn3c(-c4ccncc4)ccnc23)c1 [(3-methoxyphenyl)[7-(4-pyridinyl)pyrazolo[1,5-a]pyrimidin-3-yl]methanone] | 50%
COc1cc(C(=O)c2cnn3c(-c4cccnc4)ccnc23)cc(OC)c1OC [[7-(3-pyridinyl)pyrazolo[1,5-a]pyrimidin-3-yl](3,4,5-trimethoxyphenyl)methanone] | 25%
O=C(c1ccc(C(F)(F)F)cc1)c1cnn2c(-c3ccc(C(F)(F)F)cc3)ccnc12 [[4-(trifluoromethyl)phenyl][7-[4-(trifluoromethyl)phenyl]pyrazolo[1,5-a]pyrimidin-3-yl]methanone] | 25%
O=C(c1cccc(C(F)(F)F)c1)c1cnn2c(-c3ccc(F)cc3)ccnc12 [[7-(4-fluorophenyl)pyrazolo[1,5-a]pyrimidin-3-yl][3-(trifluoromethyl)phenyl]methanone] | 25%
O=C(c1cccc(Cl)c1)c1cnn2c(-c3ccncc3)ccnc12 [(3-chlorophenyl)[7-(4-pyridinyl)pyrazolo[1,5-a]pyrimidin-3-yl]methanone] | 50%
Cc1ccccc1C(=O)c1cnn2c(-c3ccc(C(F)(F)F)cc3)ccnc12 [(2-methylphenyl)[7-[4-(trifluoromethyl)phenyl]pyrazolo[1,5-a]pyrimidin-3-yl]methanone] | 25%
O=C(c1ccc2ccccc2c1)c1cnn2c(-c3cccnc3)ccnc12 [2-naphthalenyl[7-(3-pyridinyl)pyrazolo[1,5-a]pyrimidin-3-yl]methanone] | 25%
O=C(c1ccncc1)c1cnn2c(-c3ccc(F)cc3)ccnc12 [[7-(4-fluorophenyl)pyrazolo[1,5-a]pyrimidin-3-yl]-4-pyridinylmethanone] | 75%
O=C(c1ccccc1)c1cnn2c(-c3ccc[n+]([O-])c3)ccnc12 [Phenyl[7-(3-pyridinyl)pyrazolo[1,5-a]pyrimidin-3-yl]methanone, pyridine-1-oxide] | 25%
COc1cc(C(=O)c2cnn3c(-c4ccncc4)ccnc23)cc(OC)c1OC [[7-(4-pyridinyl)pyrazolo[1,5-a]pyrimidin-3-yl](3,4,5-trimethoxyphenyl)methanone] | 25%
O=C(c1ccccn1)c1cnn2c(-c3ccc(C(F)(F)F)cc3)ccnc12 [2-pyridinyl[7-[4-(trifluoromethyl)phenyl]pyrazolo[1,5-a]pyrimidin-3-yl]methanone] | 25%
Cc1cnc2c(C(=O)c3ccccc3)cnn2c1-c1cccc(C(F)(F)F)c1 [[6-methyl-7-[3-(trifluoromethyl)phenyl]pyrazolo[1,5-a]pyrimidin-3-yl]phenylmethanone] | 25%
Cc1nn2c(-c3ccncc3)ccnc2c1C(=O)c1ccccc1 [[2-methyl-7-(4-pyridinyl)pyrazolo[1,5-a]pyrimidin-3-yl]phenylmethanone] | 25%
